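GI50 marks 50% less growth. At the TGI there is no net growth.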
How the values were obtained:
Test in all cases: DTP human tumour cell line panel, 384-well format
[1] = system: 786-0 renal
[2] = system: A498 renal
[3] = system: A549 NSCLC
[4] = system: ACHN renal
[5] = system: BT-549 breast
[6] = system: CAKI-1 renal
[7] = system: CCRF-CEM leukemia
[8] = system: COLO 205 colon
[9] = system: EKVX NSCLC
[10] = system: HCC-2998 colon
[11] = system: HCT-116 colon
[12] = system: HCT-15 colon
[13] = system: HL-60(TB) leukemia
[14] = system: HOP-92 NSCLC
[15] = system: HS 578T breast
[16] = system: HT29 colon
[17] = system: IGROV1 ovarian
[18] = system: K-562 leukemia
[19] = system: KM12 colon
[20] = system: LOX IMVI melanoma
[21] = system: M14 melanoma
[22] = system: MALME-3M melanoma
[23] = system: MCF7 breast
[24] = system: MDA-MB-231 breast
[25] = system: MDA-MB-435 melanoma
[26] = system: MDA-MB-468 breast
[27] = system: MOLT-4 leukemia
[28] = system: NCI-H226 lung
[29] = system: NCI-H23 lung
[30] = system: NCI-H322M lung
[31] = system: NCI-H460 NSCLC
[32] = system: NCI-H522 lung
[33] = system: NCI/ADR-RES ovarian
[34] = system: OVCAR-4 ovarian
[35] = system: OVCAR-5 ovarian
[36] = system: PC-3 prostate
[37] = system: RPMI-8226 leukemia
[38] = system: RXF 393 renal
[39] = system: SF-268 CNS
[40] = system: SF-295 CNS
[41] = system: SF-539 CNS
[42] = system: SK-MEL-2 melanoma
[43] = system: SK-MEL-5 melanoma
[44] = system: SK-OV-3 ovarian
[45] = system: SN12C renal
[46] = system: SNB-19 CNS
[47] = system: SNB-75 CNS
[48] = system: SR leukemia
[49] = system: T-47D breast
[50] = system: U251 glioblastoma
[51] = system: UACC-257 melanoma
[52] = system: UACC-62 melanoma
[53] = system: UO-31 renal

With `CC(C)c1cc(-c2n[nH]c(=O)n2-c2ccc3c(ccn3C)c2)c(O)cc1O` the GI50 [1] was < 10 nM, the TGI [1] was 78.1 nM and the GI50 [2] was 26.1 nM. The TGI [2] was 17200 nM, the GI50 [3] was < 10 nM and the TGI [3] was 14000 nM. For the same compound, the GI50 [4] was < 10 nM, the TGI [4] was > 100000 nM and the GI50 [5] was < 10 nM. For the same compound, the TGI [5] was < 10 nM, the GI50 [6] was 19.5 nM and the TGI [6] was 18000 nM. For the same compound, the GI50 [7] was < 10 nM, the TGI [7] was 15.2 nM and the GI50 [8] was < 10 nM. The TGI [8] was 56.7 nM, the GI50 [9] was 11.8 nM and the TGI [9] was 76.3 nM. The GI50 [10] was < 10 nM, the TGI [10] was 15.6 nM and the GI50 [11] was 18.8 nM. The TGI [11] was 10500 nM, the GI50 [12] was < 10 nM and the TGI [12] was 13100 nM. For the same compound, the GI50 [13] was < 10 nM, the TGI [13] was < 10 nM and the GI50 [14] was 11.8 nM. The TGI [14] was 36.3 nM, the GI50 [15] was < 10 nM and the TGI [15] was 61.5 nM. For the same compound, the GI50 [16] was 36.4 nM, the TGI [16] was 13400 nM and the GI50 [17] was < 10 nM. For the same compound, the TGI [17] was 21.4 nM, the GI50 [18] was < 10 nM and the TGI [18] was 27 nM. For the same compound, the GI50 [19] was < 10 nM, the TGI [19] was 84.9 nM and the GI50 [20] was < 10 nM. The TGI [20] was 20.7 nM, the GI50 [21] was < 10 nM and the TGI [21] was 2690 nM. The GI50 [22] was < 10 nM, the TGI [22] was < 10 nM and the GI50 [23] was < 10 nM. The TGI [23] was 16400 nM, the GI50 [24] was 19.1 nM and the TGI [24] was 72 nM. For the same compound, the GI50 [25] was < 10 nM, the TGI [25] was 22600 nM and the GI50 [26] was < 10 nM. For the same compound, the TGI [26] was < 10 nM, the GI50 [27] was < 10 nM and the TGI [27] was < 10 nM. For the same compound, the GI50 [28] was 46.5 nM, the TGI [28] was 603 nM and the GI50 [29] was < 10 nM. The TGI [29] was 23.8 nM, the GI50 [30] was 19.9 nM and the TGI [30] was 16200 nM. For the same compound, the GI50 [31] was < 10 nM, the TGI [31] was < 10 nM and the GI50 [32] was < 10 nM. For the same compound, the TGI [32] was < 10 nM, the GI50 [33] was 22.6 nM and the TGI [33] was 69.1 nM. The GI50 [34] was < 10 nM, the TGI [34] was > 100000 nM and the GI50 [35] was 21.8 nM. The TGI [35] was 13500 nM, the GI50 [36] was 10.2 nM and the TGI [36] was 52.7 nM. The GI50 [37] was < 10 nM, the TGI [37] was 12.9 nM and the GI50 [38] was < 10 nM. It also gave a TGI [38] of 11500 nM, a GI50 [39] of 15.4 nM and a TGI [39] of 28400 nM. The GI50 [40] was 17 nM, the TGI [40] was 46.6 nM and the GI50 [41] was < 10 nM. The TGI [41] was < 10 nM, the GI50 [42] was < 10 nM and the TGI [42] was < 10 nM. The GI50 [43] was < 10 nM, the TGI [43] was 3690 nM and the GI50 [44] was 12.3 nM. The TGI [44] was 2440 nM, the GI50 [45] was < 10 nM and the TGI [45] was 36.7 nM. For the same compound, the GI50 [46] was 13.4 nM, the TGI [46] was 74.5 nM and the GI50 [47] was < 10 nM. For the same compound, the TGI [47] was 46 nM, the GI50 [48] was < 10 nM and the TGI [48] was < 10 nM. The GI50 [49] was 28.2 nM, the TGI [49] was 1570 nM and the GI50 [50] was < 10 nM. The TGI [50] was 24.3 nM, the GI50 [51] was 42.4 nM and the TGI [51] was 22600 nM. For the same compound, the GI50 [52] was < 10 nM, the TGI [52] was 31.6 nM and the GI50 [53] was < 10 nM. For the same compound, the TGI [53] was 11800 nM.

Reference: PubChem BioAssay (NCI)
